Source: ChEMBL document CHEMBL1125472, “5-lipoxygenase: properties, pharmacology, and the quinolinyl(bridged)aryl class of inhibitors” (J Med Chem, 1992)

How the values were obtained:
[1] = biological target: T1, Prostaglandin G/H synthase (cyclooxygenase) (Mus musculus, UniProt P22437+Q05769); assay: The compound was tested for inhibitory activity against cyclooxygenase in mouse macrophages; assay type: protein assay
T1 sequence (P22437 whole entry): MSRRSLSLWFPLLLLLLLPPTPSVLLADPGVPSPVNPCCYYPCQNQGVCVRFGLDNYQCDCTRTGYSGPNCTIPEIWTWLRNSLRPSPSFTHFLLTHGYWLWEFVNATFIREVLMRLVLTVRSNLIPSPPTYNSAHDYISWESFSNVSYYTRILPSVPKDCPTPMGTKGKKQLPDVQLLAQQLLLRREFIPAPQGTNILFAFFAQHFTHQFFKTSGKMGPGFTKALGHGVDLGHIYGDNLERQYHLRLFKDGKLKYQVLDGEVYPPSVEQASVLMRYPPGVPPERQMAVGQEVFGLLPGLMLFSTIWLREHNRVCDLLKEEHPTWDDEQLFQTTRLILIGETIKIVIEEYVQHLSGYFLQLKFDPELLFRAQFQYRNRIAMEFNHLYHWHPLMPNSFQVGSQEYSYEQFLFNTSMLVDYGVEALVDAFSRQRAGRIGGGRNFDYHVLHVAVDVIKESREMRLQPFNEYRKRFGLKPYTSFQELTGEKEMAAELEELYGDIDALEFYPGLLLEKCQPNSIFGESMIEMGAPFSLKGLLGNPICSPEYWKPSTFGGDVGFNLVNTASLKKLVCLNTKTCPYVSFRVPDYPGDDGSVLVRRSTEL
T1 sequence (Q05769 whole entry): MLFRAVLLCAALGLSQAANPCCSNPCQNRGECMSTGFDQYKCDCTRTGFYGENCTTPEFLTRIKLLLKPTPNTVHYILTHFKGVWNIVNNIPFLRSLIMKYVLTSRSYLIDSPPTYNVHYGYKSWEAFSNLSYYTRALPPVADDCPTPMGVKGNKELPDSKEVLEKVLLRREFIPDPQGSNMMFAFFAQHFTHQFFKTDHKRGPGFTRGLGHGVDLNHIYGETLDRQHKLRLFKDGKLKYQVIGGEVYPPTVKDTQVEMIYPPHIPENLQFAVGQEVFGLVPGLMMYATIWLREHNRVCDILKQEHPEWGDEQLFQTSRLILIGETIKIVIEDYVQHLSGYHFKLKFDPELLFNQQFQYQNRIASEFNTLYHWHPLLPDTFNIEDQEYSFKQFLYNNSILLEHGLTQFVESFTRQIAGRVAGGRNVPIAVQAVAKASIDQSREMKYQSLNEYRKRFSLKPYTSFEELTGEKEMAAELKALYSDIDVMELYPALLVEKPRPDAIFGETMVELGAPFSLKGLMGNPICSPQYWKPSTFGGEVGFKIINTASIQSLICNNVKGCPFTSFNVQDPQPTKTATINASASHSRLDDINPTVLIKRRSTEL

[2] = biological target: T2, Polyunsaturated fatty acid 5-lipoxygenase (Rattus norvegicus, UniProt P12527); assay: The compound was tested for inhibitory activity against 5-lipoxygenase in rat polymorphonuclear leukocytes[PMNS]; assay type: cell-based
T2 sequence (P12527 whole entry): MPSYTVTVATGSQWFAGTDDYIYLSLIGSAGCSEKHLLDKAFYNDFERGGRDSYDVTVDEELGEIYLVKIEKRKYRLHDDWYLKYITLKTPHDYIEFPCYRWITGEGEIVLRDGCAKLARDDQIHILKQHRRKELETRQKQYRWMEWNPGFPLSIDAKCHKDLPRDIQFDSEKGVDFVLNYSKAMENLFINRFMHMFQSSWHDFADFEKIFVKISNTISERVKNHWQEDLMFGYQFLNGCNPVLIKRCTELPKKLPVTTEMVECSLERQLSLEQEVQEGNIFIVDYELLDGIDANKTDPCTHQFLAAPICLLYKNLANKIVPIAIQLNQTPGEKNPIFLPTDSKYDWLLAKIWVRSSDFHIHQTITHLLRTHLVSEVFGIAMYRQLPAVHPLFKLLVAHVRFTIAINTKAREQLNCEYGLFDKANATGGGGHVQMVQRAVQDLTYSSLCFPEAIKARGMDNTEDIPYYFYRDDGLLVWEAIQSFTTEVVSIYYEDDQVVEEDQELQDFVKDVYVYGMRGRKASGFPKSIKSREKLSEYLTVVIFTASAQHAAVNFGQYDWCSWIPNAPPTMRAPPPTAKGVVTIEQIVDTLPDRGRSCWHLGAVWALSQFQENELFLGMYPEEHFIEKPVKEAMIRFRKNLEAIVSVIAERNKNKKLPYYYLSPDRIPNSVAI

[3] = organism: Mus musculus; assay: The effective dose which inhibits […] induced contact hypersensitivity in mouse ears; assay type: functional
[4] = organism: Mus musculus; assay: Compound was tested for tetradecanoylphorbol acetate (TPA) induced inflammation at concentration of 1 mg/ear in mouse; assay type: functional

`c1ccc2nc(COc3cccc4ccccc34)ccc2c1` gave an IC50 [1] of 44000 nM, an IC50 [2] of 400 nM and an ED50 [3] of 0.4 mg ear-1. For the same molecule, the Inhibition [4] was 40%.
